# Results as given in ChEMBL document CHEMBL1201862, “PubChem BioAssay data set” (2004).
#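 Protocol summary: plate cells (96-well), add compound at 5 concentrations, incubate 48 h, interpolate endpoints linearly. At the GI50, growth is halved.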 Calls of active or inactive are those of the source. Cut-off read from the data, not from the text of the source: active = GI50 up to about 1.1 µM and inactive = higher.
# Assays:
# Test in all cases: NCI tumour cell line growth inhibition, 48 h
# [1] = system: EKVX
# [2] = system: NCI-H23
# [3] = system: SF-295
# [4] = system: SK-MEL-28
# [5] = system: NCI-H226
# [6] = system: MDA-N
# [7] = system: HCT-116
# [8] = system: OVCAR-8
# [9] = system: NCI-H460
# [10] = system: SR
# [11] = system: 786-0
# [12] = system: KM12
# [13] = system: A549
# [14] = system: NCI-H522
# [15] = system: PC-3
# [16] = system: M14
# [17] = system: Hs-578T
# [18] = system: OVCAR-5
# [19] = system: LOX IMVI
# [20] = system: BT-549
# [21] = system: T47D
# [22] = system: CCRF-CEM
# [23] = system: UACC-257
# [24] = system: RXF 393
# [25] = system: COLO 205
# [26] = system: RPMI-8226
# [27] = system: SK-MEL-5
# [28] = system: TK-10
# [29] = system: MDA-MB-231
# [30] = system: OVCAR-3
# [31] = system: CAKI-1
# [32] = system: NCI/ADR-RES
# [33] = system: Malme-3M
# [34] = system: MCF7
# [35] = system: SW-620
# [36] = system: ACHN
# [37] = system: HT-29
# [38] = system: DU-145
# [39] = system: HCC 2998
# [40] = system: K562
# [41] = system: OVCAR-4
# [42] = system: SK-OV-3
# [43] = system: SNB-19
# [44] = system: MDA-MB-435
# [45] = system: UO-31
# [46] = system: IGROV-1
# [47] = system: UACC-62
# [48] = system: SK-MEL-2
# [49] = system: HCT-15
# [50] = system: HOP-92
# [51] = system: MOLT-4
# [52] = system: HL-60
# [53] = system: SNB-75
# [54] = system: SF-268
# [55] = system: U-251
# [56] = system: SF-539
# [57] = system: A498
# [58] = system: HOP-62
# [59] = system: SN12C
smiles,measurement,setting,value
CC1=CC(O)CC(C)(C)C1/C=C/C(C)=C/C=C/C(C)=C/C=C/C=C(C)/C=C/C=C(C)/C=C/C1=C(C)CC(O)CC1(C)C (stereo unspecified),GI50,[1],79.3 µM (inactive)
same,GI50,[2],24.7 µM (inactive)
same,GI50,[3],23.9 µM (inactive)
same,GI50,[4],17.5 µM (inactive)
same,GI50,[5],21.4 µM (inactive)
same,GI50,[6],18.7 µM (inactive)
same,GI50,[7],15.7 µM (inactive)
same,GI50,[8],19.7 µM (inactive)
same,GI50,[9],32.6 µM (inactive)
same,GI50,[10],15.7 µM (inactive)
same,GI50,[11],19.1 µM (inactive)
same,GI50,[12],38.6 µM (inactive)
same,GI50,[13],35.6 µM (inactive)
same,GI50,[14],15.2 µM (inactive)
same,GI50,[15],23.2 µM (inactive)
same,GI50,[16],13.8 µM (inactive)
same,GI50,[17],80.5 µM (inactive)
same,GI50,[18],34.8 µM (inactive)
same,GI50,[19],56.1 µM (inactive)
same,GI50,[20],17.8 µM (inactive)
same,GI50,[21],20 µM (inactive)
same,GI50,[22],26.2 µM (inactive)
same,GI50,[23],24.9 µM (inactive)
same,GI50,[24],18.5 µM (inactive)
same,GI50,[25],20.7 µM (inactive)
same,GI50,[26],28.2 µM (inactive)
same,GI50,[27],16.6 µM (inactive)
same,GI50,[28],57.8 µM (inactive)
same,GI50,[29],13.5 µM (inactive)
same,GI50,[30],17.3 µM (inactive)
same,GI50,[31],23.2 µM (inactive)
same,GI50,[32],24.5 µM (inactive)
same,GI50,[33],15.6 µM (inactive)
same,GI50,[34],27.7 µM (inactive)
same,GI50,[35],19.1 µM (inactive)
same,GI50,[36],16.6 µM (inactive)
same,GI50,[37],14.9 µM (inactive)
same,GI50,[38],7.43 µM (inactive)
same,GI50,[39],83.9 µM (inactive)
same,GI50,[40],38.3 µM (inactive)
same,GI50,[41],28.8 µM (inactive)
same,GI50,[42],40.8 µM (inactive)
same,GI50,[43],53.2 µM (inactive)
same,GI50,[44],17.5 µM (inactive)
same,GI50,[45],34 µM (inactive)
same,GI50,[46],26.5 µM (inactive)
same,GI50,[47],15 µM (inactive)
same,GI50,[48],25 µM (inactive)
same,GI50,[49],19.7 µM
same,GI50,[50],21.4 µM (inactive)
same,GI50,[51],20.9 µM (inactive)
same,GI50,[52],51.6 µM (inactive)
same,GI50,[53],26.5 µM (inactive)
COc1cc(/C=C/c2cc(/C=C/c3ccc(O)c(OC)c3)oc(=O)c2)ccc1O,GI50,[54],3.94 µM (inactive)
same,GI50,[1],3.1 µM (inactive)
same,GI50,[2],4.06 µM (inactive)
same,GI50,[3],2.74 µM (inactive)
same,GI50,[4],6.32 µM (inactive)
same,GI50,[5],10.5 µM (inactive)
same,GI50,[6],4.7 µM (inactive)
same,GI50,[7],3.67 µM (inactive)
same,GI50,[8],4.12 µM (inactive)
same,GI50,[9],2.29 µM (inactive)
same,GI50,[10],3.07 µM (inactive)
same,GI50,[55],3.07 µM (inactive)
same,GI50,[11],5.62 µM (inactive)
same,GI50,[12],3.18 µM (inactive)
same,GI50,[13],3.17 µM (inactive)
same,GI50,[14],2.87 µM (inactive)
same,GI50,[15],3.91 µM (inactive)
same,GI50,[56],6.79 µM (inactive)
same,GI50,[16],5.09 µM (inactive)
same,GI50,[17],4.54 µM (inactive)
same,GI50,[18],32.8 µM (inactive)
same,GI50,[19],3.71 µM (inactive)
same,GI50,[20],3.23 µM (inactive)
same,GI50,[21],0.272 µM (active)
same,GI50,[22],3.64 µM (inactive)
same,GI50,[23],5.25 µM (inactive)
same,GI50,[25],13.1 µM (inactive)
same,GI50,[26],2.3 µM (inactive)
same,GI50,[27],4.99 µM (inactive)
same,GI50,[28],3.78 µM (inactive)
same,GI50,[29],13.9 µM (inactive)
same,GI50,[30],2.36 µM (inactive)
same,GI50,[31],3.61 µM (inactive)
same,GI50,[32],4.38 µM (inactive)
same,GI50,[33],2.66 µM (inactive)
same,GI50,[34],3.33 µM (inactive)
same,GI50,[35],3.13 µM (inactive)
same,GI50,[36],3.26 µM (inactive)
same,GI50,[37],2.84 µM (inactive)
same,GI50,[38],0.553 µM (active)
same,GI50,[39],1.81 µM (inactive)
same,GI50,[40],4.43 µM (inactive)
same,GI50,[41],3.84 µM (inactive)
same,GI50,[57],3.9 µM (inactive)
same,GI50,[42],9.04 µM (inactive)
same,GI50,[43],7.57 µM (inactive)
same,GI50,[58],4.92 µM (inactive)
same,GI50,[44],3.38 µM (inactive)
same,GI50,[45],3.01 µM (inactive)
same,GI50,[46],4.67 µM (inactive)
same,GI50,[59],5.53 µM (inactive)
same,GI50,[47],4.69 µM (inactive)
same,GI50,[48],3.98 µM (inactive)
same,GI50,[49],3.12 µM
same,GI50,[50],4.67 µM (inactive)
same,GI50,[51],3.48 µM (inactive)
same,GI50,[53],0.393 µM (active)
Cn1c(=O)n2n(c1=O)C(C)(C13CC4CC(CC(C4)C1)C3)C13CC4CC(CC1C4)CC23 (stereo unspecified),GI50,[54],> 100 µM (inactive)
same,GI50,[1],> 100 µM (inactive)
same,GI50,[2],> 100 µM (inactive)
same,GI50,[3],> 100 µM (inactive)
same,GI50,[4],> 100 µM (inactive)
same,GI50,[5],> 100 µM (inactive)
same,GI50,[6],> 100 µM (inactive)
same,GI50,[8],> 100 µM (inactive)
same,GI50,[9],> 100 µM (inactive)
same,GI50,[10],> 100 µM (inactive)
same,GI50,[55],> 100 µM (inactive)
same,GI50,[12],> 100 µM (inactive)
same,GI50,[13],> 100 µM (inactive)
same,GI50,[15],> 100 µM (inactive)
same,GI50,[56],> 100 µM (inactive)
same,GI50,[16],> 100 µM (inactive)
same,GI50,[17],> 100 µM (inactive)
same,GI50,[18],> 100 µM (inactive)
same,GI50,[20],> 100 µM (inactive)
same,GI50,[21],> 100 µM (inactive)
same,GI50,[22],> 100 µM (inactive)
same,GI50,[23],> 100 µM (inactive)
same,GI50,[25],> 100 µM (inactive)
same,GI50,[26],> 100 µM (inactive)
same,GI50,[27],> 100 µM (inactive)
same,GI50,[28],> 100 µM (inactive)
same,GI50,[29],> 100 µM (inactive)
same,GI50,[30],> 100 µM (inactive)
same,GI50,[31],> 100 µM (inactive)
same,GI50,[32],> 100 µM (inactive)
same,GI50,[34],> 100 µM (inactive)
same,GI50,[35],> 100 µM (inactive)
same,GI50,[36],> 100 µM (inactive)
same,GI50,[37],> 100 µM (inactive)
same,GI50,[38],> 100 µM (inactive)
same,GI50,[40],87.1 µM (inactive)
same,GI50,[57],> 100 µM (inactive)
same,GI50,[42],> 100 µM (inactive)
same,GI50,[43],> 100 µM (inactive)
same,GI50,[58],> 100 µM (inactive)
same,GI50,[44],> 100 µM (inactive)
same,GI50,[45],> 100 µM (inactive)
same,GI50,[46],> 100 µM (inactive)
same,GI50,[59],> 100 µM (inactive)
same,GI50,[47],> 100 µM (inactive)
same,GI50,[48],> 100 µM (inactive)
same,GI50,[49],> 100 µM
same,GI50,[50],> 100 µM (inactive)
same,GI50,[51],89.9 µM (inactive)
same,GI50,[52],6.76 µM (inactive)
same,GI50,[53],> 100 µM (inactive)
